Reference: patent US12497642B2, “Incorporation of unnatural nucleotides and methods of use in vivo thereof” (THE SCRIPPS RESEARCH INSTITUTE, priority 2017, dated 2025)
Several values for one entry are separate records, joined by “and”; a condition that tells them apart may be missing. Identical values can stand only once.

Tested on: semi-synthetic organism (SSO) (strain YZ3)
Test: Replication and UBP retention in vivo in the semi-synthetic organism (streptavidin biotin shift, PAGE), Example 1
Assay type: cell-based, Escherichia coli
Conditions: for UBP retention in vivo, in words: discussion
Procedure: All bacteria were cultured in 100 μL of liquid 2×YT media (casein peptone 16 g/L, yeast extract 10 g/L, NaCl 5 g/L) supplemented with potassium phosphate (50 mM, pH 7) in 96-well microwell plates. When noted, antibiotics were used at the following concentrations: chloramphenicol, 5 μg/mL; ampicillin, 100 μg/mL. Cell growth, indicated as OD600, was measured using a Perkin Elmer EnVision 2103 Multilabel Reader with a 590/20 nm filter. Unless otherwise stated, molecular biology reagents were purchased from New England Biolabs (Ipswich, MA) and were used according to the manufacturer's protocols. As necessary, purification of nucleic acids was accomplished by micro-elution columns (Zymo Research Corp; Irvine, CA). All natural oligonucleotides were purchased from IDT (San Diego, CA), and oligonucleotides containing dNaM were synthesized by Biosearch Technologies (Petaluma, CA) with purification by reverse phase cartridge. Unnatural nucleotide triphosphates were prepared, and confirmed by MALDI-TOF and UV/Vis.
Plasmids containing the dNaM-dTPT3 UBP were prepared and used to transform the semi-synthetic organism (SSO). To create a template for in vivo replication assays, Golden Gate assembly was used to construct a derivative of the pUC19 plasmid in which a single dNaM-dTPT3 UBP was embedded within the TK1 sequence ([…]; […]), a context within which the UBP is well replicated in the SSO. Plasmids were then used to transform the SSO (strain YZ3). Following transformation, the SSO was allowed to recover at 37° C. for 1 h in media containing dNaMTP (125 μM) and dTPT3TP (25 μM). Cells were pelleted by centrifugation, resuspended in fresh media lacking unnatural triphosphates, split into 100-μL aliquots and then used to inoculate cultures containing different pairs of unnatural triphosphates at the specified concentrations. When the cell density reached an OD600 of ˜0.7, cells were pelleted and plasmids were recovered and PCR amplified with d5SICSTP and a biotinylated analog of dNaMTP, and UBP retention was determined by comparing the intensity of the streptavidin shifted and unshifted bands via PAGE.

[1] = context 1, dNaMTP 125 μM, dTPT3TP analog 125 μM
[2] = context 2 (AXA), dTPT3TP 2.5 μM, dNaMTP analog 2.5 μM
[3] = context 2 (AXA), dTPT3TP 2.5 μM, dNaMTP analog 10 μM
[4] = context 2 (AXA), dTPT3TP 2.5 μM, dNaMTP analog 25 μM
[5] = context 2 (AXA), dTPT3TP 10 μM, dNaMTP analog 2.5 μM
[6] = context 2 (AXA), dTPT3TP 10 μM, dNaMTP analog 10 μM
[7] = context 2 (AXA), dTPT3TP 10 μM, dNaMTP analog 25 μM
[8] = context 2 (AXA), dTPT3TP 25 μM, dNaMTP analog 2.5 μM
[9] = context 2 (AXA), dTPT3TP 25 μM, dNaMTP analog 10 μM
[10] = context 2 (AXA), dTPT3TP 25 μM, dNaMTP analog 25 μM
[11] = context 2 (AXA), paired with dSICSTP 10 μM, dNaMTP analog 25 μM
[12] = context 3 (CXC), dTPT3TP 2.5 μM, dNaMTP analog 2.5 μM
[13] = context 3 (CXC), dTPT3TP 2.5 μM, dNaMTP analog 10 μM
[14] = context 3 (CXC), dTPT3TP 2.5 μM, dNaMTP analog 25 μM
[15] = context 3 (CXC), dTPT3TP 10 μM, dNaMTP analog 2.5 μM
[16] = context 3 (CXC), dTPT3TP 10 μM, dNaMTP analog 10 μM
[17] = context 3 (CXC), dTPT3TP 10 μM, dNaMTP analog 25 μM
[18] = context 3 (CXC), dTPT3TP 25 μM, dNaMTP analog 2.5 μM
[19] = context 3 (CXC), dTPT3TP 25 μM, dNaMTP analog 10 μM
[20] = context 3 (CXC), dTPT3TP 25 μM, dNaMTP analog 25 μM
[21] = dNaMTP analog paired with dTPT3TP

Structure (SMILES)	UBP retention [1]	UBP retention (%) [2] [%]	UBP retention (%) [3] [%]	UBP retention (%) [4] [%]	UBP retention (%) [5] [%]	UBP retention (%) [6] [%]	UBP retention (%) [7] [%]	UBP retention (%) [8] [%]	UBP retention (%) [9] [%]	UBP retention (%) [10] [%]	UBP retention [11] [%]	UBP retention (%) [12] [%]	UBP retention (%) [13] [%]	UBP retention (%) [14] [%]	UBP retention (%) [15] [%]	UBP retention (%) [16] [%]	UBP retention (%) [17] [%]	UBP retention (%) [18] [%]	UBP retention (%) [19] [%]	UBP retention (%) [20]	further results
Cc1ccc2ccn(C3CC(O)C(COP(=O)(O)OP(=O)(O)OP(=O)(O)O)O3)c(=S)c2c1 (stereo not drawn) [d4SICS]	significant UBP retention	–	–	–	–	–	–	–	–	–	–	–	–	–	–	–	–	–	–	–	–
O=P(O)(O)OP(=O)(O)OP(=O)(O)OCC1OC(n2ccc3ccccc3c2=S)CC1O (stereo not drawn) [dSICSTP]	significant UBP retention	–	–	–	–	–	–	–	–	–	–	–	–	–	–	–	–	–	–	–	–
COc1cc(C#N)ccc1C1CC(O)C(COP(=O)(O)OP(=O)(O)OP(=O)(O)O)O1 (stereo not drawn) [dCNMOTP]	–	92 ± 4	82 ± 24	91 ± 10	88 ± 9	91 ± 3	95 ± 2	103 ± 7	103 ± 1	101 ± 10	59	9 ± 1	22 ± 10	31 ± 14	13 ± 5	28 ± 7	35 ± 8	22 ± 7	25 ± 22	42% and 42 ± 18%	UBP retention (%) (Table 5, sequence context 1 (AXT), dTPT3TP 25 μM, dNaMTP or dCNMOTP 25 μM): 98%; UBP retention (%) (Table 5, sequence context 1 (AXT), dTPT3TP 25 μM, dNaMTP or dCNMOTP 25 μM, listed as dCNMO): 98 ± 7%; UBP retention (%) (Table 5, sequence context 1 (AXT), dTPT3TP 25 μM, dNaMTP or dCNMOTP 125 μM): 99 ± 8%; UBP retention (%) (Table 5, sequence context 2 (AXA), dTPT3TP 25 μM, dNaMTP or dCNMOTP 25 μM): 101 ± 10%; UBP retention (%) (Table 5, sequence context 2 (AXA), dTPT3TP 25 μM, dNaMTP or dCNMOTP 125 μM): 100 ± 10%; UBP retention (%) (Table 5, sequence context 3 (CXC), dTPT3TP 25 μM, dNaMTP or dCNMOTP 25 μM): 42%; UBP retention (%) (Table 5, sequence context 3 (CXC), dTPT3TP 25 μM, dNaMTP or dCNMOTP 25 μM, listed as dCNMO): 42 ± 18%; UBP retention (%) (Table 5, sequence context 3 (CXC), dTPT3TP 25 μM, dNaMTP or dCNMOTP 125 μM): 65%; UBP retention (%) (Table 5, sequence context 3 (CXC), dTPT3TP 25 μM, dNaMTP or dCNMOTP 125 μM, listed as dCNMO): 65 ± 7%; UBP retention (%) (Table 5, sequence context 4 (CXG), dTPT3TP 25 μM, dNaMTP or dCNMOTP 25 μM): 14 ± 5%; UBP retention (%) (Table 5, sequence context 4 (CXG), dTPT3TP 25 μM, dNaMTP or dCNMOTP 125 μM): 24%; UBP retention (%) (Table 5, sequence context 4 (CXG), dTPT3TP 25 μM, dNaMTP or dCNMOTP 125 μM, listed as dCNMO): 24 ± 13%
COc1cc(N=[N+]=[N-])ccc1C1CC(O)C(COP(=O)(O)OP(=O)(O)OP(=O)(O)O)O1 (stereo not drawn) [dZMOTP]	–	–	–	–	–	–	–	–	–	–	–	–	–	–	–	–	–	–	–	–	UBP retention in vivo, in words [21]: well retained in vivo when supplemented at high concentrations
O=P(O)(O)OP(=O)(O)OP(=O)(O)OCC1OC(n2ccc3ccsc3c2=S)CC1O (stereo not drawn) [dTPT3TP]	significant UBP retention	–	–	–	–	–	–	–	–	–	–	–	–	–	–	–	–	–	–	–	UBP retention (context 2 (AXA), dTPT3TP 10 μM paired with each of the four dNaMTP analogs at 25 μM): > 87%
C#Cc1cc(OC)c(C2CC(O)C(COP(=O)(O)OP(=O)(O)OP(=O)(O)O)O2)cc1F (stereo not drawn) [dFEMOTP]	–	–	–	–	–	–	–	–	–	–	–	–	–	–	–	–	–	–	–	–	UBP retention in vivo, in words [21]: well retained in vivo when supplemented at high concentrations
COc1cc(C)c(F)cc1C1CC(O)C(COP(=O)(O)OP(=O)(O)OP(=O)(O)O)O1 (stereo not drawn) [d5FMTP]	–	47 ± 14	61 ± 27	75 ± 6	69 ± 6	83 ± 5	87 ± 12	76 ± 9	95 ± 3	90 ± 7	68	9 ± 6	10 ± 5	11 ± 8	6 ± 4	14 ± 5	27 ± 14	14 ± 3	33 ± 16	49% and 49 ± 27%	–
Cc1cc2c(=S)n(C3CC(O)C(COP(=O)(O)OP(=O)(O)OP(=O)(O)O)O3)ccc2o1 (stereo not drawn) [dFPT1]	significant UBP retention	–	–	–	–	–	–	–	–	–	–	–	–	–	–	–	–	–	–	–	–
O=P(O)(O)OP(=O)(O)OP(=O)(O)OCC1OC(n2ccc3ncccc3c2=S)CC1O (stereo not drawn) [dSNICS]	significant UBP retention	–	–	–	–	–	–	–	–	–	–	–	–	–	–	–	–	–	–	–	UBP retention in vivo, in words (dTPT3TP analog paired with dNaMTP): moderate retention at both low and high concentrations
COc1cc(C)ccc1C1CC(O)C(COP(=O)(O)OP(=O)(O)OP(=O)(O)O)O1 (stereo not drawn) [dMMO2TP]	–	17 ± 8	54 ± 19	47 ± 20	68 ± 16	67 ± 16	88 ± 7	63 ± 31	86 ± 11	90 ± 4	19	5 ± 3	10 ± 3	13 ± 4	9 ± 3	16 ± 10	22 ± 10	19 ± 8	36 ± 12	45% and 45 ± 20%	–
Cc1cc2c(=S)n(C3CC(O)C(COP(=O)(O)OP(=O)(O)OP(=O)(O)O)O3)ccc2s1 (stereo not drawn) [dTPT1]	significant UBP retention	–	–	–	–	–	–	–	–	–	–	–	–	–	–	–	–	–	–	–	–
COc1cc(Cl)ccc1C1CC(O)C(COP(=O)(O)OP(=O)(O)OP(=O)(O)O)O1 (stereo not drawn) [dClMOTP]	–	73 ± 10	84 ± 7	86 ± 6	83 ± 9	89 ± 5	96 ± 2	80 ± 20	92 ± 4	98 ± 4	61	9 ± 2	7 ± 4	12 ± 2	9 ± 1	15 ± 2	14 ± 5	8 ± 4	20 ± 7	21%	UBP retention (%) (context 3 (CXC), dTPT3TP 25 μM, dNaMTP analog 25 μM, listed as dCIMOTP): 21 ± 14%
